Data on 20 compounds can be found in ChEMBL document CHEMBL4229373, “A comprehensive review of chalcone derivatives as antileishmanial agents” (Eur J Med Chem, 2018).

The test system of one experiment is Leishmania panamensis. Briefly: Antileishmanial activity against GFP fused Leishmania panamensis MHOM/CO/87/UA140 amastigotes infected in human […] cells after 72 hrs by flow cytometry. Format: functional, organism-based. The note with it: MHOM/CO/87/UA140, 72 h. A general note: In flow cytometry, cells or beads pass a laser one at a time.
Experiment [1] relates to Leishmania amazonensis. As to the kind of experiment: Antileishmanial activity against Leishmania amazonensis MHOM/BR/75/M-2904 strain Lb2904 amastigotes infected in mouse J774A1 cells after 48 hrs by Giemsa staining based microscopic method. The experiment is classed as functional, organism-based. The following applies: MHOM/BR/75/M-2904 Lb290, J774.A1, 48 h.
For experiment [2], the system named is Leishmania donovani. As to the kind of experiment: Antileishmanial activity against Leishmania donovani MHOM/SD/00/1SD2D […] amastigotes infected in human peripheral blood monocyte-derived macrophages after 48 hrs by [3H]-thymidine incorporation assay. The experiment is classed as functional, organism-based.
Experiment [3] deals with Leishmania amazonensis. As to the kind of experiment: Antileishmanial activity against Leishmania amazonensis MHOM/BR/76/LTB-012 axenic amastigotes. Format: functional, organism-based.
The test system of experiment [4] is Leishmania donovani. Briefly: Antileishmanial activity against Leishmania donovani L82 amastigotes infected in CD1 mouse peritoneal macrophages after 5 days by Giemsa staining based microscopic method. Format: functional. The note with it: L82, 120 h, read-out: ED50 (the source's name).
For experiment [5], the system named is Leishmania donovani. Briefly: Antileishmanial activity against DsRed-positive Leishmania donovani Dd8 amastigotes infected in mouse J774A1 cells after 48 hrs by flow cytometry. The following applies: Dd8, J774.A1, 48 h. Format: functional, organism-based.
The subject of experiment [6] is Leishmania donovani. As to the kind of experiment: Antileishmanial activity against Leishmania donovani amastigotes. The experiment is classed as functional, organism-based.
Another experiment has as its system Leishmania major. Briefly: Antileishmanial activity against Leishmania major amastigotes infected in human peripheral blood monocyte-derived macrophages. Format: functional, organism-based.
The subject of experiment [7] is Leishmania amazonensis. As to the kind of experiment: Antileishmanial activity against Leishmania amazonensis LV/79 (MPRO/BR/72/M 1841) amastigotes infected in Balb/c mouse macrophages after 48 hrs by Giemsa staining based light microscopic method. The experiment is classed as functional. The following applies: read-out: ED50 (the source's name).
Experiment [8] has as its system Leishmania amazonensis. Briefly: Antileishmanial activity against Leishmania amazonensis MHOM/BR/76/LTB-012 axenic amastigotes after 72 hrs by MTT dye based assay. The following applies: MHOM/BR/76/LTB-012, 72 h. Format: functional, organism-based. Background: Tetrazolium dyes change colour on reduction, which living cells bring about.

pEC50, pIC50: −log10 of the molar value. In brackets after ≈: the same amount, converted by molar mass. A value given as a limit tells only on which side of the number the result lay.

With `O=C(/C=C/c1cccc(Nc2ccnc3cc(Cl)ccc23)c1)c1ccc(Br)cc1`, the concentration for half-maximal inhibition (IC50) (as a rule, the concentration that gives 50% inhibition) in the experiment with Leishmania panamensis turned out to be 0.88 µg/mL (≈ 1.9 µM).
Regarding `O=C(/C=C/c1cccc(S(=O)(=O)Nc2ccccc2)c1)c1ccccc1`, the pIC50 (usually the negative decadic logarithm of the IC50, by convention in mol/L) in the experiment with Leishmania amazonensis [1] is 5.70.
With `COc1ccc(/C=C/C(=O)c2ccc(OCCCCCOc3cc(Cl)ccc3Oc3ccc(Cl)cc3Cl)cc2)cc1OC`, the IC50 in the experiment on Leishmania panamensis came to 13.5 µg/mL (≈ 21 µM).
On the same count and under the same terms, next, `COc1ccc(/C=C/C(=O)c2ccc(OCCCCOc3cccc4cccnc34)cc2)cc1OC`: 6.24 µg/mL (≈ 12.9 µM); `O=C(/C=C/c1cccc(Nc2ccnc3cc(Cl)ccc23)c1)c1ccc(Cl)cc1`: 0.79 µg/mL (≈ 1.88 µM).
`C=CCOc1ccc(C(=O)/C=C/c2ccc(OC)c(OC)c2)cc1` gave a pIC50 with Leishmania donovani [2] of 6.38.
For the compound `COc1cc(O)c(C(=O)/C=C/c2ccc(O)cc2)c(O)c1`, the pIC50 in the experiment with Leishmania amazonensis [3] was 4.21.
For the compound `C=CCOc1ccc(C(=O)/C=C/c2cccc(OC)c2OC)cc1`, the negative-log IC50 (pIC50) in the experiment with Leishmania donovani [2] is 6.19.
Consider `O=C(/C=C/c1ccccn1)c1ccc(O)cc1`, for which, in the experiment with Leishmania donovani [4], the pEC50 was 5.83.
On the same count and under the same terms, next, `COc1ccc(C(=O)/C=C/c2cnc3ccccc3c2)c(OC)c1`: 5.82.
In the experiment with Leishmania panamensis, `COc1ccc(/C=C/C(=O)c2ccc(OCCCOc3cc(Cl)ccc3Oc3ccc(Cl)cc3Cl)cc2)cc1OC` displayed a concentration for half-maximal inhibition (IC50) of 9.4 µg/mL (≈ 15.3 µM).
In the experiment with Leishmania donovani [5], `CC(=O)c1sc(N/N=C/c2cccc(/C=C/C(=O)c3ccco3)c2)nc1C` showed a pIC50 of 4.85.
In the experiment with Leishmania panamensis, `COc1ccc(/C=C/C(=O)c2ccc(OCCCCOc3cc(Cl)ccc3Oc3ccc(Cl)cc3Cl)cc2)cc1OC` gave an IC50 of 10.2 µg/mL (≈ 16.2 µM).
As to `COc1ccc(OC)c(C(=O)/C=C/c2ccccn2)c1`, the negative-log IC50 (pIC50) with Leishmania donovani [6] was 6.02.
In the experiment on Leishmania amazonensis [1], `COc1ccc(/C=C/C(=O)c2ccccc2)cc1` [4-METHOXY CHALCONE] showed a negative logarithm of the IC50 (pIC50) of less than 4.52.
As to `C=CC(C)(C)c1cc(/C=C/C(=O)c2ccc(O)cc2)c(OC)cc1O` [LICOAGROCHACONE A], the 50% inhibitory concentration (IC50) in the experiment on Leishmania major was found to be 0.5 µg/mL (≈ 1.48 µM).
As to `COc1cc(O)c(C(=O)/C=C/c2ccccc2)c(O)c1`, in the experiment on Leishmania amazonensis [7], the EC50 came out at 24 µg/mL (≈ 88.8 µM).
The compound `COc1cc(OC)c(C(=O)/C=C/c2ccccc2)c(O)c1OC` showed a negative logarithm of the IC50 (pIC50) with Leishmania amazonensis [8] of 6.10.
Regarding `O=C(/C=C/c1ccc2ccccc2c1)c1ccc(O)cc1`, the pEC50 in the experiment with Leishmania donovani [4] was 5.86.
`COc1cc(O)cc(O)c1C(=O)/C=C/c1ccccc1` [CARDAMOMIN] gave a pIC50 in the experiment with Leishmania amazonensis [8] of 5.10.
